Results as given in patent US20250346576A1, “KCNT1 INHIBITORS COMPRISING A PYRAZOLE CORE AND METHODS OF USE” (PRAXIS PRECISION MEDICINES, INC., priority 2022, published 2025).
pIC50: −log10 of the molar value.

Molecular target: T1, KCNT1 (KNa1.1, Slack) (Homo sapiens, UniProt Q5JUK3)
T1 construct: expressed in transfected cells; host or cells: HEK-TREX (tetracycline inducible cell line)
T1 sequence (Q5JUK3 1-1230): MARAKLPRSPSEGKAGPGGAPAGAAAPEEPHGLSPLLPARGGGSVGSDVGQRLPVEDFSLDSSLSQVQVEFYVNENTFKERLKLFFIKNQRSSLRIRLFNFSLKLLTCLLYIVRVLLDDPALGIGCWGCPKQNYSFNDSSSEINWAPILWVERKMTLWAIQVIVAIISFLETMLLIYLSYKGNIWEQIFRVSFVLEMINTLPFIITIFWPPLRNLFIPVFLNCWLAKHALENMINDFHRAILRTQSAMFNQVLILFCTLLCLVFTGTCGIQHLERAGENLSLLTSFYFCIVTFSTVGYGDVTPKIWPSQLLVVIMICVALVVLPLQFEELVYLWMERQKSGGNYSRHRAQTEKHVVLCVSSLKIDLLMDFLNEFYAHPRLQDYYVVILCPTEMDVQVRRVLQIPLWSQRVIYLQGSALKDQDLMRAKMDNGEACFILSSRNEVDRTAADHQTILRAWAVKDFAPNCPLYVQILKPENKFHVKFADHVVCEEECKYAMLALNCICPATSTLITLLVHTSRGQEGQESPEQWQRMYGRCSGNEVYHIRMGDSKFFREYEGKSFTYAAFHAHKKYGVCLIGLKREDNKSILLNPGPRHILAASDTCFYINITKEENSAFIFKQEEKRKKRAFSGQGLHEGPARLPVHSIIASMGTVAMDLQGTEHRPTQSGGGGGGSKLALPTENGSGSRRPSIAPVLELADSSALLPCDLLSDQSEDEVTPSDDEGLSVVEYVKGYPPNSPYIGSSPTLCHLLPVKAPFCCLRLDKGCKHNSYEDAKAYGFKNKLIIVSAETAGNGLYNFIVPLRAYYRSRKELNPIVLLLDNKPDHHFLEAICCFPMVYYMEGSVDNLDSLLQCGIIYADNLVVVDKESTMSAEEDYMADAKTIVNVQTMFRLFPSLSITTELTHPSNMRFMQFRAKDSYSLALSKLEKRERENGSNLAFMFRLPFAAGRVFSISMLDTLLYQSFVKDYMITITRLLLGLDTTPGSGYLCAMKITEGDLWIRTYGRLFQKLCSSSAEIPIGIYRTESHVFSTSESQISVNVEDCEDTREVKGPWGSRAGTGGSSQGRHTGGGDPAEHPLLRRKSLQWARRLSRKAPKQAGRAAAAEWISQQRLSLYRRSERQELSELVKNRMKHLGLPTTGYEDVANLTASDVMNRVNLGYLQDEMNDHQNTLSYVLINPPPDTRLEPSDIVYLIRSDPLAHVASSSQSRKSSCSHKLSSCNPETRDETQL
Assay: KCNT1 patch clamp assay (SyncroPatch 384PE, tetracycline inducible HEK-TREX cell line)
Format: cell-based
Conditions: WT KCNT1, HEK-TREX cells, perforated patch, step from -80 mV to 0 mV, room temperature; read-out: WT (KCNT1 inhibition IC50)
Experimental: Inhibition of KCNT1 (KNa1.1, Slack) was evaluated using a tetracycline inducible cell line (HEK-TREX). Currents were recorded using the SyncroPatch 384PE automated, patch clamp system. Pulse generation and data collection were performed with PatchController384 V1.3.0 and DataController384 V1.2.1 (Nanion Technologies). The access resistance and apparent membrane capacitance were estimated using built-in protocols. Current was recorded in perforated patch mode (10 μM escin) from a population of cells. The cells were lifted, triturated, and resuspended at 800,000 cells/ml. The cells were allowed to recover in the cell hotel prior to experimentation. Currents were recorded at room temperature. The external solution contained the following (in mM): NaCl 105, NMDG 40, KCl 4, MgCl2 1, CaCl2 5, and HEPES 10 (pH=7.4, Osmolarity ˜300 mOsm). The extracellular solution was used as the wash, reference, and compound delivery solution. The internal solution contained the following (in mM): NaCl 70, KF 70, KCl 10, EGTA 5, HEPES 5, and Escin 0.01 (pH=7.2, Osmolarity ˜295 mOsm). Escin is made at a 5 mM stock in water, aliquoted, and stored at −20° C. The compound plate was created at 2× concentrated in the extracellular solution. The compound was diluted to 1:2 when added to the recording well. The amount of DMSO in the extracellular solution was held constant at the level used for the highest tested concentration. A holding potential of −80 mV with a 100 ms step to 0 mV was used. Mean current was measured during the step to 0 mV. […] The average mean current from 3 sweeps was calculated and the percent inhibition of each compound was calculated. The percent inhibition as a function of the compound concentration was fit with a Hill equation to derive IC50, slope, minimum parameters, and maximum parameters. If KCNT1 inhibition was less than 50% at the highest tested concentration or if an IC50 could not be calculated, then a percent inhibition was reported in place of the IC50.
In this table, “A” indicates IC50 of less than or equal to 1 μM; “B” indicates inhibition of between 1 μM to 20 μM; and “C” indicates inhibition of greater than or equal to 20 μM.

SMILES | pIC50
CC(NC(=O)c1cc(C(F)(F)F)nn1C)c1cc(-c2ccnc(C(F)(F)F)c2)nn1C (single isomer, unassigned) [Compound 1001] | ≥ 6.00
CC(NC(=O)c1cc(C(F)(F)F)nn1C)c1cc(-c2ccncc2)nn1C (single isomer, unassigned) [Compound 1003] | ≤ 4.70
CCn1nc(-c2ccnc(C(F)(F)F)c2)cc1C(C)NC(=O)c1cc(C(F)(F)F)nn1C (single isomer, unassigned) [Compound 1004] | ≥ 6.00
Cc1cc(-c2cc(C(C)NC(=O)c3cc(C(F)(F)F)nn3C)n(C)n2)ccn1 (single isomer, unassigned) [Compound 1005] | 4.70 to 6.00
Cc1cc(-c2cc(C(C)NC(=O)c3cc(C(F)(F)F)nn3C)n(C)n2)ccn1 (single isomer, unassigned) [Compound 1006] | 4.70 to 6.00
CCn1nc(-c2ccnc(C(F)(F)F)c2)cc1C(C)NC(=O)c1cc(C(F)(F)F)nn1C (single isomer, unassigned) [Compound 1007] | ≥ 6.00
CC(NC(=O)c1cc(C(F)(F)F)nn1C)c1cc(-c2ccncc2)nn1C (single isomer, unassigned) [Compound 1008] | 4.70 to 6.00
CC(NC(=O)c1cc(C(F)(F)F)nn1C)c1cc(-c2ccccc2)nn1C (single isomer, unassigned) [Compound 1010] | 4.70 to 6.00
CC(NC(=O)c1cc(C(F)(F)F)nn1C)c1cc(-c2ccccc2)nn1C (single isomer, unassigned) [Compound 1011] | 4.70 to 6.00
CC(NC(=O)c1cc(C(F)(F)F)nn1C)c1cc(C(F)(F)F)nn1C (single isomer, unassigned) [Compound 1014] | 4.70 to 6.00
CC(NC(=O)c1cc(C(F)(F)F)nn1C)c1cc(C(F)(F)F)nn1C (single isomer, unassigned) [Compound 1015] | 4.70 to 6.00
CC(NC(=O)c1cc(C(F)(F)F)nn1C)c1cc(-c2ccc(CO)nc2)nn1C (stereo not shown) [Compound 1009] | ≤ 4.70
Cc1ncc(-c2cc(C(C)NC(=O)c3cc(C(F)(F)F)nn3C)n(C)n2)cn1 (stereo not shown) [Compound 1012] | ≤ 4.70
COc1ccc(-c2cc(C(C)NC(=O)c3cc(C(F)(F)F)nn3C)n(C)n2)cn1 (stereo not shown) [Compound 1013] | ≥ 6.00
CC(NC(=O)c1cc(C(F)(F)F)nn1C)c1cc(-c2ccc(C#N)nc2)nn1C (stereo not shown) [Compound 1016] | ≤ 4.70
Cc1cccc(-c2cc(C(C)NC(=O)c3cc(C(F)(F)F)nn3C)n(C)n2)n1 (stereo not shown) [Compound 1017] | 4.70 to 6.00
CC(NC(=O)c1cc(C(F)(F)F)nn1C)c1cc(-c2ccc(C(F)(F)F)nc2)nn1C (stereo not shown) [Compound 1018] | 4.70 to 6.00
Cn1nc(-c2ccnc(C(F)(F)F)c2)cc1CNC(=O)c1cc(C(F)(F)F)nn1C [Compound 1019] | ≥ 6.00
CC(NC(=O)c1cc(C(F)(F)F)nn1C)c1cc(-c2ccnc(C(F)(F)F)c2)nn1C (stereo not shown) [Compound 1020] | ≥ 6.00
CC(NC(=O)c1cc(C(F)(F)F)nn1C)c1cc(-c2ccc(C#N)cc2)nn1C (stereo not shown) [Compound 1021] | 4.70 to 6.00

More lines, now with the values ahead:

pIC50 | SMILES
≤ 4.70 | CC(NC(=O)c1cc(C(F)(F)F)nn1C)c1cc(-c2ccc(C(N)=O)cc2)nn1C (stereo not shown) [Compound 1022]
4.70 to 6.00 | CC(NC(=O)c1cc(C(F)(F)F)nn1C)c1cc(N2CCCCC2)nn1C (stereo not shown) [Compound 1023]
4.70 to 6.00 | CC(NC(=O)c1cc(C(F)(F)F)nn1C)c1cc(Nc2ccccc2)nn1C (stereo not shown) [Compound 1024]
4.70 to 6.00 | CC(NC(=O)c1cc(C(F)(F)F)nn1C)c1cc(N(C)c2ccccc2)nn1C (stereo not shown) [Compound 1025]
≤ 4.70 | CC(NC(=O)c1cc(C(F)(F)F)nn1C)c1cc(NC2CCCC2)nn1C (stereo not shown) [Compound 1026]
4.70 to 6.00 | CC(NC(=O)c1cc(C(F)(F)F)nn1C)c1cc(N(C)C2CCCC2)nn1C (stereo not shown) [Compound 1027]
4.70 to 6.00 | CC(NC(=O)c1cc(C(F)(F)F)nn1C)c1cc(Cc2ccccc2)nn1C (stereo not shown) [Compound 1028]
≥ 6.00 | CCn1nc(-c2ccnc(C(F)(F)F)c2)cc1CNC(=O)c1cc(C(F)(F)F)nn1C [Compound 1029]
≥ 6.00 | Cc1c(-c2ccnc(C(F)(F)F)c2)nn(C)c1CNC(=O)c1cc(C(F)(F)F)nn1C [Compound 1030]
≤ 4.70 | CC(C)Oc1cc(C(C)NC(=O)c2cc(C(F)(F)F)nn2C)n(C)n1 (stereo not shown) [Compound 1031]
4.70 to 6.00 | CC(NC(=O)c1cc(C(F)(F)F)nn1C)c1cc(Oc2ccccc2)nn1C (stereo not shown) [Compound 1032]
≥ 6.00 | Cn1nc(-c2ccnc(C(F)(F)F)c2)cc1CNC(=O)c1cc(C(F)F)nn1C [Compound 1033]
≥ 6.00 | Cn1nc(C(F)F)cc1C(=O)NC1(c2cc(-c3ccnc(C(F)(F)F)c3)nn2C)CC1 [Compound 1034]
≥ 6.00 | Cn1nc(C(F)(F)F)cc1C(=O)NC1(c2cc(-c3ccnc(C(F)(F)F)c3)nn2C)CC1 [Compound 1035]
≥ 6.00 | COc1cc(-c2cc(CNC(=O)c3cc(C(F)(F)F)nn3C)n(C)n2)ccn1 [Compound 1036]
≥ 6.00 | CCOc1cc(-c2cc(CNC(=O)c3cc(C(F)(F)F)nn3C)n(C)n2)ccn1 [Compound 1037]
≥ 6.00 | Cn1nc(-c2ccnc(C3CC3)c2)cc1CNC(=O)c1cc(C(F)(F)F)nn1C [Compound 1038]
≥ 6.00 | CC(C)c1cc(C(=O)NCc2cc(-c3ccnc(C(F)(F)F)c3)nn2C)n(C)n1 [Compound 1039]
≥ 6.00 | Cn1nc(-c2ccnc(C(F)(F)F)c2)cc1CNC(=O)c1ccccc1 [Compound 1040]
≥ 6.00 | Cc1cc(-c2cc(CNC(=O)c3cc(C(F)(F)F)nn3C)n(C)n2)c(F)cn1 [Compound 1041]
